Laboratory results: ChEMBL document CHEMBL1142539, “Double edge redox-implications for the interaction between endogenous thiols and copper ions: In vitro studies” (Bioorg Med Chem, 2008)
Activity calls are given as the source filed them. The rule behind the calls is not given here.

Legend:
[1] = Induction of ascorbic acid oxidation preincubated for 30 mins in presence of Cu2++; type: physicochemical; design: concentration or dose not given beside the values; conditions: 0.5 h
[2] = test system: Radical scavenging activity; assay: Antioxidant activity assessed as DPPH radical scavenging activity after 40 mins in absence of Cu2+; type: functional
[3] = Antioxidant activity assessed as reducing capacity of DTNB at 20 uM after 30 mins in presence of Cu2++; type: functional; design: scale not given: the % may be the effect or the level left
[4] = Antioxidant activity assessed as reducing capacity of Iodine solution at 0.25mM after 30 mins in presence of Cu2++; type: functional; design: scale not given: the % may be the effect or the level left
[5] = Antioxidant activity assessed as ABTS radical scavenging activity at 4 uM after 3 mins in presence of Cu2+; type: functional
[6] = Effect on CU2+-mediated superoxide-dependent lucigenin reduction by chemiluminescence assay at 10 to 30 uM; type: physicochemical
[7] = Antioxidant activity assessed as ABTS radical scavenging activity after 30 mins in absence of Cu2+; type: functional
[8] = Induction of ascorbic acid oxidation preincubated for 60 mins in presence of Cu2++; type: physicochemical; design: concentration or dose not given beside the values; conditions: 1 h
[9] = test system: Radical scavenging activity; assay: Antioxidant activity assessed as DPPH radical scavenging activity at 36 uM after 3 mins in presence of Cu2++; type: functional
[10] = Induction of ascorbic acid oxidation preincubated for 3 mins in presence of Cu2++; type: physicochemical; design: concentration or dose not given beside the values; conditions: 0.05 h
[11] = Induction of ascorbic acid oxidation preincubated for 300 mins in presence of Cu2++; type: physicochemical; design: concentration or dose not given beside the values; conditions: 5 h
[12] = Effect on CU2+-mediated superoxide-dependent cytochrome c reduction at 10 to 30 uM; type: physicochemical
[13] = Antioxidant activity assessed as ABTS radical scavenging activity at 4 uM after 30 mins in presence of Cu2++; type: functional
[14] = test system: Radical scavenging activity; assay: Antioxidant activity assessed as DPPH radical scavenging activity at 36 uM after 30 mins in presence of Cu2++; type: functional
[15] = Antioxidant activity assessed as reducing capacity of DTNB at 20 uM after 60 mins in presence of Cu2++; type: functional
[16] = Antioxidant activity assessed as reducing capacity of Iodine solution at 0.25 mM after 120 mins in presence of Cu2++; type: functional
[17] = Antioxidant activity assessed as reducing capacity of Iodine solution at 0.25 mM after 60 mins in presence of Cu2++; type: functional

SMILES	Activity [1]	Activity [2]	Activity [3]	Activity [4]	Activity [5]	Activity [6]	Activity [7]	Activity [8]	Activity [9]	Activity [10]	Activity [11]	Activity [12]	Activity [13]	Activity [14]	Activity [15]	Activity [16]	Activity [17]
N[C@@H](CCC(=O)N[C@@H](CS)C(=O)NCC(=O)O)C(=O)O [GLUTATHIONE]	83.2%	Dose-dependent effect	36%	31%	Active	Active	Dose-dependent effect	84.2%	Active	81.3%	85.4%	Active	55%	76%	–	–	–
N[C@@H](CCS)C(=O)O [L-HOMOCYSTEINE]	84.1%	Dose-dependent effect	40%	30%	Active	Active	Dose-dependent effect	86.1%	Active	81.1%	85.3%	Active	31%	72%	–	–	–
N[C@@H](CS)C(=O)NCC(=O)O	92.28%	Dose-dependent effect	0%	20%	Active	Active	Dose-dependent effect	94.31%	Active	79.8%	94.33%	Active	33%	88%	Active	inactive	Active
N[C@@H](CCC(=O)N[C@@H](CS)C(=O)O)C(=O)O	87.4%	Dose-dependent effect	26%	24%	Active	–	Dose-dependent effect	89.6%	Active	81.4%	97.6%	Active	29%	54%	–	–	–
N[C@@H](CS)C(=O)O [CYSTEINE]	77.34%	Dose-dependent effect	24%	23%	Active	–	Dose-dependent effect	80.35%	Active	74.35%	80.36%	Active	44%	92%	–	–	–
